{"source": "patent US20240343694A1", "about": "“PYRIMIDINE DERIVATIVE, METHOD FOR PREPARING SAME, AND PHARMACEUTICAL COMPOSITION FOR PREVENTING OR TREATING CANCER COMPRISING SAME AS ACTIVE INGREDIENT” (KOREA RESERARCH INSTITUTE OF CHEMICAL TECHNOLOGY, priority 2021, published 2024)", "key": {"EGFR del19": {"target": "EGFR del19 (Homo sapiens (Human), UniProt P00533, DEL746-750)", "sequence (P00533 other isoform, or with tags, fused parts or gaps del 1-668/del 746-750 limits assumed)": "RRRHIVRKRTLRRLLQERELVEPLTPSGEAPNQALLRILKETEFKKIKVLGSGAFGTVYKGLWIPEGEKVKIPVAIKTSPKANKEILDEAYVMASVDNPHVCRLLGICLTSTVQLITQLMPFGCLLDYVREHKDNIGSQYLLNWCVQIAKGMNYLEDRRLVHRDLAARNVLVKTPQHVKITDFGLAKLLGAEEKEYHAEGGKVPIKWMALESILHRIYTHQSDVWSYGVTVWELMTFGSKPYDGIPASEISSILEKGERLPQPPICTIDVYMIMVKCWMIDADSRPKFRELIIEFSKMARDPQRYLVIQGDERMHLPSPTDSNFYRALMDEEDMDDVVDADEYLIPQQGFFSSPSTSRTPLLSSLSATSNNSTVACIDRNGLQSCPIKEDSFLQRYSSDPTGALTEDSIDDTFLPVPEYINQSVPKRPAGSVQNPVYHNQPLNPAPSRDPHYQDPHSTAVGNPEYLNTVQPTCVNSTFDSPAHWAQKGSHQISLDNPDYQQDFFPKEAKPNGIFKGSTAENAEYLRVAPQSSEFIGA", "experiment": "HTRF inhibitory activity against EGFR mutant enzyme (EGFR del19)", "format": "biochemical", "conditions": "recombinant enzyme, 37° C. for 2 hours", "summary_of_the_method": "(§1)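 IC50 was derived from 7 concentrations by HTRF: Eu-anti-pTyr and streptavidin-XL665 for 1 h at room temperature, with the 615/665 nm ratio read. The kinase reaction ran 2 h at 37 °C in Tris pH 7.5 buffer with ATP (stated 50 mM) and biotinylated peptide (0.5 mM). Enzyme was preincubated with compound before substrate was added.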"}, "EGFR A763_Y764insFHEA": {"target": "EGFR A763_Y764insFHEA (Homo sapiens (Human), UniProt P00533, INS763FHEA)", "sequence (P00533 other isoform, or with tags, fused parts or gaps del 1-694/ins FHEA behind 763 limits assumed)": "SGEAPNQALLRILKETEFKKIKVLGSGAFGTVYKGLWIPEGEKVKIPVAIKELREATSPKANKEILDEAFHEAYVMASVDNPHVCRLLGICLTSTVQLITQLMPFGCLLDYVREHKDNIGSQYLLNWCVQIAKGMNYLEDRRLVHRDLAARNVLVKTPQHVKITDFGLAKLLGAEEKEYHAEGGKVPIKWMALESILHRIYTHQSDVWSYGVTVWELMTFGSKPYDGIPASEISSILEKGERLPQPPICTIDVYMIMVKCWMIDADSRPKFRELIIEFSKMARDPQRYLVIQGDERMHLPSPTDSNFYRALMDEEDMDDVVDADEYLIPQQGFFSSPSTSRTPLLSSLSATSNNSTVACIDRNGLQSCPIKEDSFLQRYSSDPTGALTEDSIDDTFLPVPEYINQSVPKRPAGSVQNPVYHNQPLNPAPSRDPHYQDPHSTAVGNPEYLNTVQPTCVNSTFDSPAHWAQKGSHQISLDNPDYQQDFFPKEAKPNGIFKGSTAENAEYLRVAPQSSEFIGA", "experiment": "HTRF inhibitory activity against EGFR mutant enzyme (EGFR A763_Y764insFHEA)", "format": "biochemical", "conditions": "recombinant enzyme, 37° C. for 2 hours", "summary_of_the_method": "as §1"}, "HER2 A775_G776insYVMA": {"target": "HER2 A775_G776insYVMA (Homo sapiens (Human), UniProt P04626, INS775YVMA)", "sequence (P04626 other isoform, or with tags, fused parts or gaps del 1-675/ins YVMA behind 775 limits assumed)": "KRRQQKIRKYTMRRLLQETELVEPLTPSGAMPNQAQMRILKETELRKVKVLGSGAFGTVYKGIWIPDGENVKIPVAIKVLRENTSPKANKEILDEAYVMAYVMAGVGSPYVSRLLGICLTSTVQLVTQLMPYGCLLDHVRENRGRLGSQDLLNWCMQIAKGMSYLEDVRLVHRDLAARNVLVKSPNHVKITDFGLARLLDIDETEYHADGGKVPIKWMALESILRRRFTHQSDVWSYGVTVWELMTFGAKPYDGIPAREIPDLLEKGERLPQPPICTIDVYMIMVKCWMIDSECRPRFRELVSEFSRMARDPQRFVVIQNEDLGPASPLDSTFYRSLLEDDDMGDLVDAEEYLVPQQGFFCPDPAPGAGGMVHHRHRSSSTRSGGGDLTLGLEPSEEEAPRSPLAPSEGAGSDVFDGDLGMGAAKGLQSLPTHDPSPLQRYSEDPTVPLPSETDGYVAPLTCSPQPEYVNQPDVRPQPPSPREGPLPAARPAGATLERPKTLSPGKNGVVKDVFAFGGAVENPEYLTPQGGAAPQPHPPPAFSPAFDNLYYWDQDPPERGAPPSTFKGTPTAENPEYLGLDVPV", "experiment": "HTRF inhibitory activity against HER2 mutant enzyme", "format": "biochemical", "conditions": "recombinant enzyme, 37° C. for 2 hours", "summary_of_the_method": "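Recombinant HER2 A775_G776insYVMA preincubated with compound, then […] and biotinylated peptide ([…]) added; 2 h at 37 °C in Tris-HCl pH 7.5 buffer with MgCl2, DTT. HTRF detection (Eu anti-phosphotyrosine/streptavidin-XL665); IC50 from 7 concentrations.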"}, "[1]": {"system": "Ba/F3 EGFR D770_N771insSVD", "experiment": "Growth inhibition of Ba/F3 EGFR mutant cells (CellTiter-Glo)", "format": "cell-based", "conditions": "Ba/F3 EGFR-D770-N771ins_SVD, 72 hours", "summary_of_the_method": "(§2)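 Ba/F3 cells expressing either EGFR insertion mutant were seeded at 1,000 cells/well and dosed 24 h later at eight concentrations from 0 to 10 μM. After 72 h, viability was read by CellTiter-Glo ATP signal. IC50 (μM) was fitted from the eight-point curves.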"}, "[2]": {"system": "Ba/F3 EGFR V769_D770insASV", "experiment": "Growth inhibition of Ba/F3 EGFR mutant cells (CellTiter-Glo)", "format": "cell-based", "conditions": "72 hours", "summary_of_the_method": "as §2"}, "[3]": {"system": "Ba/F3 HER2 A775_G776insYVMA", "experiment": "Growth inhibition of Ba/F3 HER2 mutant cells (CellTiter-Glo)", "format": "cell-based", "conditions": "Mus musculus, BaF3, 72 hours", "summary_of_the_method": "(§3)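 Ba/F3 cells carrying HER2 A775_G776insYVMA or G776delinsVC were seeded at 1,000 cells/well and dosed 24 h later at 0.01-10 μM (8 concentrations including 0). After 72 h, viability was read as cellular ATP by CellTiter-Glo luminescence, and IC50 values were calculated from the 8-point curves.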"}, "Ba/F3 HER2 G776delinsVC": {"system": "Ba/F3 HER2 G776delinsVC", "experiment": "Growth inhibition of Ba/F3 HER2 mutant cells (CellTiter-Glo)", "format": "cell-based", "conditions": "Mus musculus, BaF3, 72 hours", "summary_of_the_method": "as §3"}}, "note": "pIC50: −log10 of the molar value.", "data": [{"smiles": "CC#CC(=O)Nc1cc(Nc2ncc(Cl)c(Nc3cccc4c3N(S(C)(=O)=O)CC4)n2)c(OC)cc1N(C)CCN(C)C", "note": "[Example 96, N-(5-((5-chloro-4-((1-(methylsulfonyl)indolin-7-yl)amino)pyrimidin-2-yl)amino)-2-((2-(dimethylamino)ethyl)(methyl)amino)-4-methoxyphenyl) but-2-inamide]", "values": [{"measurement": "pIC50", "setting": "EGFR del19", "result": 9.00}, {"measurement": "pIC50", "setting": "EGFR A763_Y764insFHEA", "result": 8.00}, {"measurement": "pIC50", "setting": "HER2 A775_G776insYVMA", "result": 7.06}, {"measurement": "pIC50", "setting": "[1]", "result": "> 8.00"}, {"measurement": "pIC50", "setting": "[2]", "result": "> 8.00"}, {"measurement": "pIC50", "setting": "[3]", "result": "< 7.00"}, {"measurement": "pIC50", "setting": "Ba/F3 HER2 G776delinsVC", "result": "> 8.00"}]}, {"smiles": "CC#CC(=O)Nc1cc(Nc2ncc(Cl)c(Nc3cccc4c3N(C(C)=O)CC4)n2)c(OC)cc1N(C)CCN(C)C", "note": "[Example 97, N-(5-((4-((1-acetylindolin-7-yl)amino)-5-chloropyrimidin-2-yl)amino)-2-((2-(dimethylamino)ethyl)(methyl)amino)-4-methoxyphenyl) but-2-inamide]", "values": [{"measurement": "pIC50", "setting": "EGFR del19", "result": 7.82}, {"measurement": "pIC50", "setting": "EGFR A763_Y764insFHEA", "result": 6.55}, {"measurement": "pIC50", "setting": "HER2 A775_G776insYVMA", "result": 6.59}, {"measurement": "pIC50", "setting": "[1]", "result": "7.52 to 8.00"}, {"measurement": "pIC50", "setting": "[2]", "result": "7.52 to 8.00"}, {"measurement": "pIC50", "setting": "[3]", "result": "< 7.00"}, {"measurement": "pIC50", "setting": "Ba/F3 HER2 G776delinsVC", "result": "> 8.00"}]}, {"smiles": "CC#CC(=O)Nc1cc(Nc2ncc(Cl)c(Nc3ccc(C)cc3N(C)S(C)(=O)=O)n2)c(OC)cc1N(C)CCN(C)C", "note": "[Example 98, N-(5-((5-chloro-4-((4-methyl-2-(N-methylmethylsulfonamido)phenyl)amino)pyrimidin-2-yl)amino)-2-((2-(dimethylamino)ethyl)(methyl)amino)-4-methoxyphenyl) but-2-inamide]", "values": [{"measurement": "pIC50", "setting": "EGFR del19", "result": "> 9.00"}, {"measurement": "pIC50", "setting": "EGFR A763_Y764insFHEA", "result": 8.05}, {"measurement": "pIC50", "setting": "HER2 A775_G776insYVMA", "result": 7.28}, {"measurement": "pIC50", "setting": "[1]", "result": "7.52 to 8.00"}, {"measurement": "pIC50", "setting": "[2]", "result": "7.52 to 8.00"}, {"measurement": "pIC50", "setting": "[3]", "result": "< 7.00"}, {"measurement": "pIC50", "setting": "Ba/F3 HER2 G776delinsVC", "result": "> 8.00"}]}, {"smiles": "C=CC(=O)Nc1cc(Nc2ncc(C#N)c(Nc3cccc4c3N(C(C)=O)CC4)n2)c(OC)cc1N(C)CCN(C)C", "note": "[Example 99, N-(5-((4-((1-acetylindolin-7-yl)amino)-5-cyanopyrimidin-2-yl)amino)-2-((2-(dimethylamino)ethyl)(methyl)amino)-4-methoxyphenyl)acrylamide]", "values": [{"measurement": "pIC50", "setting": "EGFR del19", "result": 9.00}, {"measurement": "pIC50", "setting": "EGFR A763_Y764insFHEA", "result": 8.52}, {"measurement": "pIC50", "setting": "HER2 A775_G776insYVMA", "result": 7.72}, {"measurement": "pIC50", "setting": "[1]", "result": "7.52 to 8.00"}, {"measurement": "pIC50", "setting": "[2]", "result": "7.52 to 8.00"}, {"measurement": "pIC50", "setting": "[3]", "result": "7.52 to 8.00"}, {"measurement": "pIC50", "setting": "Ba/F3 HER2 G776delinsVC", "result": "> 8.00"}]}, {"smiles": "C=CC(=O)Nc1cc(Nc2nccc(Nc3cccc4c3N(C(C)=O)CC4)n2)c(OC)cc1N(C)CCN(C)C", "note": "[Example 100, N-(5-((4-((1-acetylindolin-7-yl)amino)pyrimidin-2-yl)amino)-2-((2-(dimethylamino)ethyl)(methyl)amino)-4-methoxyphenyl)acrylamide]", "values": [{"measurement": "pIC50", "setting": "EGFR del19", "result": 8.52}, {"measurement": "pIC50", "setting": "EGFR A763_Y764insFHEA", "result": 8.05}, {"measurement": "pIC50", "setting": "HER2 A775_G776insYVMA", "result": 6.65}, {"measurement": "pIC50", "setting": "[1]", "result": "7.52 to 8.00"}, {"measurement": "pIC50", "setting": "[2]", "result": "7.52 to 8.00"}, {"measurement": "pIC50", "setting": "[3]", "result": "< 7.00"}, {"measurement": "pIC50", "setting": "Ba/F3 HER2 G776delinsVC", "result": "> 8.00"}]}]}
